Test results taken from US8575091B1, “Amylin analogues and pharmaceutical compositions thereof” (Novo Nordisk A/S, priority 2012, dated 2013).
Read-outs that look alike come from different tables or passages of the source. Numbered stars: 1 amine (or outer) side, 2 acyl side, 3 side chain; on linkers, the order of the positions; unused ones are H or OH. Bridge positions count the residues as written; N and C are the ends. Side chains are listed from the residue outwards. Peptide text beside a SMILES is read from it. * marks the point of attachment. C20 diacid = O=C(O)CCCCCCCCCCCCCCCCCCC(=O)*; γGlu = O=C(O)[C@H](CCC(=O)[*:2])N[*:1]

Key:
human amylin receptor = target: T1, human amylin receptor (Homo sapiens, UniProt O60896+P30988); assay: Assay (V) binding to the human amylin receptor (SPA, 125I-rat amylin); details: for IC50: human amylin receptor membranes, SPA, read-out: hAmylin-R bind IC50
T1 construct: expressed in transfected cells
T1 sequence (P30988 25-474): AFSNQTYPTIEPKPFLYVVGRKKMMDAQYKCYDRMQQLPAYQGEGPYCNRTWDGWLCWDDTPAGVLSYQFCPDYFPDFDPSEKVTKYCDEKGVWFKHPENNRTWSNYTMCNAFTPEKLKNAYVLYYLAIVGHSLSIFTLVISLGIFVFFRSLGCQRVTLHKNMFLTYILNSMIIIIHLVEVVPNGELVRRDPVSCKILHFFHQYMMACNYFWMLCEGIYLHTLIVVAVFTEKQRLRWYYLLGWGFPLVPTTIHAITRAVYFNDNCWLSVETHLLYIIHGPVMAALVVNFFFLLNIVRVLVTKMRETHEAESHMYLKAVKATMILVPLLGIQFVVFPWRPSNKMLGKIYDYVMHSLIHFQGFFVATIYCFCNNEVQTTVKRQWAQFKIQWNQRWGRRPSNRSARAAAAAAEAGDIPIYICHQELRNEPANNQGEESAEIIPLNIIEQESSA
T1 sequence (O60896 24-148 partner): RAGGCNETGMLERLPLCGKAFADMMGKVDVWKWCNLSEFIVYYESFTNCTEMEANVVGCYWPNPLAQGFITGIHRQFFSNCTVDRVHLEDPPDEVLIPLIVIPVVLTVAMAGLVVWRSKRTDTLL
In short: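 SPA competition binding on membranes from Amylin 3(a)/CRE-luc cells, 35 ng/μL membranes with 0.05 mg/well beads. Buffer 50 mM Hepes pH 7.4, 1 mM CaCl2, 5 mM MgCl2, 0.1% OA, 0.02% Tween20. IC50 from one-site competition fit as affinity measure.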

[1] = target: T2, human calcitonin receptor (Homo sapiens, UniProt P30988); assay: Assay (VII) binding to the human calcitonin receptor (SPA, 125I-Calcitonin); details: read-out: hCTR bind IC50;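 further: cell membranes coupled to SPA beads, competitive displacement read by scintillation counting, IC50 derived from a one-site competition fit as a measure of receptor affinity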
T2 construct: expressed in transfected cells
T2 sequence (P30988 25-474): T1 sequence (P30988 25-474)

[2] = target: T3, human amylin receptor (amylin 3(a) receptor: human calcitonin receptor + RAMP-3) (Homo sapiens, UniProt O60896+P30988); assay: Assay (II)a functional assay, human amylin receptor (CRE luciferase, BHK cells); format: cell-based; details: for EC50: read-out: hAmylin-R funct. EC50
T3 construct: expressed in transfected cells
T3 sequence (P30988 25-474): T1 sequence (P30988 25-474)
T3 sequence (O60896 24-148 partner): T1 sequence (O60896 24-148 partner)

[3] = target: T2, human calcitonin receptor; assay: Assay (II)a functional assay, human calcitonin receptor (CRE luciferase, BHK cells);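 further: luminescence from a CRE-driven luciferase reporter, read by single photon counting after cells were exposed to test samples for 3 h at 37 °C under 5% CO2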; format: cell-based; details: read-out: hCTR funct. EC50
[4] = Table 6, human functional selectivity (hCTR EC50 / hAmylin-R EC50)
[5] = Table 6a, human functional selectivity (hCTR EC50 / hAmylin-R EC50), at least 5
[6] = Table 6j, hCTR funct. EC50 / hAmylin-R funct. EC50
[7] = Table 6k, hCTR funct. EC50 / hAmylin-R funct. EC50
[8] = functional assay, human amylin receptor
[9] = human binding ratio, included for comparison
[10] = Table 7b, human calcitonin receptor binding IC50 divided by human amylin receptor binding IC50

SMILES | IC50 (human amylin receptor) [nM] | IC50 [1] [nM] | Ratio hCT/hAmylin funct. [2, 4] | Ratio hCT/hAmylin funct. [2, 5] | Ratio hCT/hAmylin funct. [2, 6] | Ratio hCT/hAmylin funct. [2, 7] | EC50 [2, 8] [nM] | EC50 [3] [nM] | Ratio hCT/hAmylin binding (human amylin receptor; [9]) | Ratio hCT/hAmylin binding (human amylin receptor; [10]) | Ratio hCT/hAmylin funct. ([2]; Table 6i, hCTR funct. EC50 / hAmylin-R funct. EC50) | EC50 ([2]; Table 6i, human amylin receptor functional) [nM] | Ratio hCT/hAmylin binding (human amylin receptor; Table 7c, human calcitonin receptor binding IC50 divided by human amylin receptor binding IC50)
CC[C@H](C)[C@H](NC(=O)[C@H](C)NC(=O)CNC(=O)[C@H](Cc1ccccc1)NC(=O)[C@H](CC(N)=O)NC(=O)[C@@H]1CCCN1C(=O)[C@H](CO)NC(=O)[C@H](CO)NC(=O)[C@H](Cc1c[nH]cn1)NC(=O)[C@H](CCCNC(=N)N)NC(=O)[C@H](CC(C)C)NC(=O)[C@H](Cc1ccccc1)NC(=O)[C@H](CC(=O)O)NC(=O)[C@H](C)NC(=O)[C@H](CC(C)C)NC(=O)[C@H](CCCNC(=N)N)NC(=O)[C@H](CCC(N)=O)NC(=O)[C@@H](NC(=O)[C@H](C)NC(=O)[C@@H]1CSSC[C@H](NC(=O)[C@@H](N)CCCCNC(=O)CC[C@H](NC(=O)CC[C@H](NC(=O)CCCCCCCCCCCCCCCCCCC(=O)O)C(=O)O)C(=O)O)C(=O)N[C@@H](CC(N)=O)C(=O)N[C@@H]([C@@H](C)O)C(=O)N[C@@H](C)C(=O)N[C@@H]([C@@H](C)O)C(=O)N1)[C@@H](C)O)C(=O)N1CCC[C@H]1C(=O)N[C@@H](CO)C(=O)N[C@@H](CO)C(=O)N[C@H](C(=O)N[C@@H](CC(N)=O)C(=O)N[C@H](C(=O)NCC(=O)N1CCC[C@H]1C(=O)N[C@@H](CCC(=O)O)C(=O)N[C@H](C(=O)N[C@@H](Cc1ccc(O)cc1)C(N)=O)[C@@H](C)O)C(C)C)[C@@H](C)O [Example 122] (H-K([γGlu-γGlu-C20 diacid])CNTATCATQRLADFLRHSSPNFGAIPSSTNVGPETY-NH2; disulfide 2-7) | 0.172 | 8.56 | 5.3 | 5.3 | 5.3 | 5.3 | 0.159 | 0.843 | – | – | – | – | –
CC[C@H](C)[C@H](NC(=O)[C@H](C)NC(=O)CNC(=O)[C@H](Cc1ccccc1)NC(=O)[C@H](CC(N)=O)NC(=O)[C@@H]1CCCN1C(=O)[C@H](CO)NC(=O)[C@H](CO)NC(=O)[C@H](Cc1c[nH]cn1)NC(=O)[C@H](CCCNC(=N)N)NC(=O)[C@H](CC(C)C)NC(=O)[C@H](Cc1ccccc1)NC(=O)[C@H](CCC(=O)O)NC(=O)[C@H](C)NC(=O)[C@H](CC(C)C)NC(=O)[C@H](CCCNC(=N)N)NC(=O)[C@H](CCC(N)=O)NC(=O)[C@@H](NC(=O)[C@H](C)NC(=O)[C@@H]1CSSC[C@H](NC(=O)[C@@H](N)CCCCNC(=O)CC[C@H](NC(=O)CC[C@H](NC(=O)CCCCCCCCCCCCCCCCCCC(=O)O)C(=O)O)C(=O)O)C(=O)N[C@@H](CC(N)=O)C(=O)N[C@@H]([C@@H](C)O)C(=O)N[C@@H](C)C(=O)N[C@@H]([C@@H](C)O)C(=O)N1)[C@@H](C)O)C(=O)N1CCC[C@H]1C(=O)N[C@@H](CO)C(=O)N[C@@H](CO)C(=O)N[C@H](C(=O)N[C@@H](CC(N)=O)C(=O)N[C@H](C(=O)NCC(=O)N1CCC[C@H]1C(=O)N[C@@H](CCC(=O)O)C(=O)N[C@H](C(=O)N1CCC[C@H]1C(N)=O)[C@@H](C)O)C(C)C)[C@@H](C)O [Example 125] (H-K([γGlu-γGlu-C20 diacid])CNTATCATQRLAEFLRHSSPNFGAIPSSTNVGPETP-NH2; disulfide 2-7) | 0.533 | 0.226 | 0.8 | – | – | – | 0.132 | 0.102 | 0.4 | – | – | – | –
CC[C@H](C)[C@H](NC(=O)[C@H](C)NC(=O)CNC(=O)[C@H](Cc1ccccc1)NC(=O)[C@H](CC(N)=O)NC(=O)[C@@H]1CCCN1C(=O)[C@H](CO)NC(=O)[C@H](CO)NC(=O)[C@H](Cc1c[nH]cn1)NC(=O)[C@H](CCCNC(=N)N)NC(=O)[C@H](CC(C)C)NC(=O)[C@H](Cc1ccccc1)NC(=O)[C@H](CCC(=O)O)NC(=O)[C@H](C)NC(=O)[C@H](CC(C)C)NC(=O)[C@H](CCCNC(=N)N)NC(=O)[C@H](CCC(N)=O)NC(=O)[C@@H](NC(=O)[C@H](C)NC(=O)[C@@H]1CSSC[C@H](NC(=O)[C@@H](N)CCCCNC(=O)CC[C@H](NC(=O)CC[C@H](NC(=O)CCCCCCCCCCCCCCCCCCC(=O)O)C(=O)O)C(=O)O)C(=O)N[C@@H](CC(N)=O)C(=O)N[C@@H]([C@@H](C)O)C(=O)N[C@@H](C)C(=O)N[C@@H]([C@@H](C)O)C(=O)N1)[C@@H](C)O)C(=O)N1CCC[C@H]1C(=O)N[C@@H](CO)C(=O)N[C@@H](CO)C(=O)N[C@H](C(=O)N[C@@H](CC(N)=O)C(=O)N[C@H](C(=O)NCC(=O)N1CCC[C@H]1C(=O)N[C@@H](CC(N)=O)C(=O)N[C@H](C(=O)N[C@@H](Cc1ccccc1)C(N)=O)[C@@H](C)O)C(C)C)[C@@H](C)O [Example 127] (H-K([γGlu-γGlu-C20 diacid])CNTATCATQRLAEFLRHSSPNFGAIPSSTNVGPNTF-NH2; disulfide 2-7) | 0.152 | 2.73 | 9.9 | 9.9 | 9.9 | 9.9 | – | 2.14 | 18.0 | 18.0 | 9.9 | 0.216 | –
CC[C@H](C)[C@H](NC(=O)[C@H](C)NC(=O)CNC(=O)[C@H](Cc1ccccc1)NC(=O)[C@H](CC(N)=O)NC(=O)[C@@H]1CCCN1C(=O)[C@H](CO)NC(=O)[C@H](CO)NC(=O)[C@H](Cc1c[nH]cn1)NC(=O)[C@H](CCCNC(=N)N)NC(=O)[C@H](CC(C)C)NC(=O)[C@H](Cc1ccccc1)NC(=O)[C@H](CCC(=O)O)NC(=O)[C@H](C)NC(=O)[C@H](CC(C)C)NC(=O)[C@H](CCCNC(=N)N)NC(=O)[C@H](CCC(N)=O)NC(=O)[C@@H](NC(=O)[C@H](C)NC(=O)[C@@H]1CSSC[C@H](NC(=O)[C@@H](N)CCCCNC(=O)CC[C@H](NC(=O)CCCCCCCCCCCCCCCCCCC(=O)O)C(=O)O)C(=O)N[C@@H](CC(N)=O)C(=O)N[C@@H]([C@@H](C)O)C(=O)N[C@@H](C)C(=O)N[C@@H]([C@@H](C)O)C(=O)N1)[C@@H](C)O)C(=O)N1CCC[C@H]1C(=O)N[C@@H](CO)C(=O)N[C@@H](CO)C(=O)N[C@H](C(=O)N[C@@H](CC(N)=O)C(=O)N[C@H](C(=O)NCC(=O)N[C@@H](CO)C(=O)N[C@@H](Cc1c[nH]cn1)C(=O)N[C@H](C(=O)N[C@@H](Cc1ccc(O)cc1)C(N)=O)[C@@H](C)O)C(C)C)[C@@H](C)O [Example 128] (H-K([γGlu-C20 diacid])CNTATCATQRLAEFLRHSSPNFGAIPSSTNVGSHTY-NH2; disulfide 2-7) | 0.992 | 26.1 | – | – | – | – | 0.425 | 5.58 | – | – | – | – | –
CC[C@H](C)[C@H](NC(=O)[C@H](C)NC(=O)CNC(=O)[C@H](Cc1ccccc1)NC(=O)[C@H](CC(N)=O)NC(=O)[C@@H]1CCCN1C(=O)[C@H](CO)NC(=O)[C@H](CO)NC(=O)[C@H](Cc1c[nH]cn1)NC(=O)[C@H](CCCNC(=N)N)NC(=O)[C@H](CC(C)C)NC(=O)[C@H](Cc1ccccc1)NC(=O)[C@H](CC(=O)O)NC(=O)[C@H](C)NC(=O)[C@H](CC(C)C)NC(=O)[C@H](CCCNC(=N)N)NC(=O)[C@H](CCC(N)=O)NC(=O)[C@@H](NC(=O)[C@H](C)NC(=O)[C@@H]1CSSC[C@H](NC(=O)[C@@H](N)CCCCNC(=O)CC[C@H](NC(=O)CC[C@H](NC(=O)CCCCCCCCCCCCCCCCCCC(=O)O)C(=O)O)C(=O)O)C(=O)N[C@@H](CC(N)=O)C(=O)N[C@@H]([C@@H](C)O)C(=O)N[C@@H](C)C(=O)N[C@@H]([C@@H](C)O)C(=O)N1)[C@@H](C)O)C(=O)N1CCC[C@H]1C(=O)N[C@@H](CO)C(=O)N[C@@H](CO)C(=O)N[C@H](C(=O)N[C@@H](CC(N)=O)C(=O)N[C@H](C(=O)NCC(=O)N1CCC[C@H]1C(=O)N[C@@H](CCCNC(=N)N)C(=O)N[C@H](C(=O)N[C@@H](Cc1ccc(O)cc1)C(N)=O)[C@@H](C)O)C(C)C)[C@@H](C)O [Example 130] (H-K([γGlu-γGlu-C20 diacid])CNTATCATQRLADFLRHSSPNFGAIPSSTNVGPRTY-NH2; disulfide 2-7) | 0.453 | 127 | – | – | – | – | 0.162 | 7.28 | 280.0 | 280.0 | – | – | 280.0
